Assay results from patent publication US4588713A, “Selective biologically active 7-oxo-prostacyclin derivatives and pharmaceutical compositions containing same” (Chinoin Gyogyszer Vegyeszeti Termekek Gyara Rt., priority 1984, dated 1986).
Converted amounts (≈) assume the structure as drawn. “Also recorded” adds a separate entry of the source. Structures can show the parent of a compound that is named as a salt.

Experiments:
[1] = test system: human plasma enriched with thrombocytes; experiment: Anti-aggregation activity in vitro (Born), ADP-induced aggregation; assay type: cell-based; settings: for relative efficiency H^1 (anti-aggregation): relative to PGI2-Na = 1
Experimental: (§1) The selective biological activity of these compounds may be studied by investigating the antiaggregation and hypotensive activity simultaneously. Anti-aggregation activity was measured in vitro according to Born Nature, 214, 927 (1962) on human plasma enriched with thrombocytes in an aggregation induced by […] ADP, whereas the haemodynamic activity was obtained from the blood pressure reducing activity of the compound administered in an i.v. bolus injection to an anaesthetized cat with an open-chest.

[2] = test system: anaesthetized cat with an open-chest; experiment: Hypotensive (haemodynamic, blood pressure reducing) activity, i.v. bolus, anaesthetized open-chest cat; assay type: in vivo; settings: for ED50: Felis catus, iv; for relative efficiency H^2 (hypotensive): relative to PGI2-Na = 1
Experimental: as §1

[3] = test system: antiaggregation and hypotensive activity; experiment: Selectivity: antiaggregation versus hypotensive activity; settings: for H^1 /H^2: relative anti-aggregation efficiency / relative hypotensive efficiency
Experimental: as §1

[4] = background; cited from earlier work
[5] = in vitro, human plasma enriched with thrombocytes, 2 μm ADP
[6] = i.v. bolus, anaesthetized open-chest cat

IC50 [1, 5] [ng/mL] | anti-aggregation IC50 [1, 5] [ng/mL] | SMILES | relative efficiency H^1 (anti-aggregation) [1] | ED50 [2, 6] [µg/kg] | relative efficiency H^2 (hypotensive) [2] | H^1 /H^2 [3] | chemical and biological stability (in words) [4] | hypotensive activity ED50 [2, 6] [µg/kg] | selectivity compared with prostacycline and 7-oxo-PGI2 sodium salt (in words) ([3]; from H^1/H^2, listed as cyclopentyl analog)
15 | – | CCCCC[C@H](O)/C=C/[C@@H]1[C@H]2C(=O)/C(=C/CCCC(=O)O)O[C@H]2C[C@H]1O [7-oxo-PGI2 --Na, sodium salt of 7-oxo-PGI2] | 0.086 | 6.5 | 0.024 | 2.75 | – | – | –
1 (≈ 2.84 nM) | – | CCCCC[C@H](O)/C=C/[C@@H]1[C@H]2C/C(=C/CCCC(=O)O)O[C@H]2C[C@H]1O [PGI2 --Na] | – | 0.16 | 1 | 1 | – | – | –
– | – | CCCCC[C@H](O)/C=C/[C@@H]1[C@H]2C/C(=C/CCCC(=O)O)O[C@H]2C[C@H]1O [PGI2, Prostacyclin] | – | – | – | – | chemical and biological instability | – | –
– | 1.6 | O=C([O-])CCCC=C1OC2CC(O)C(C=CC(O)C3CCCC3)C2C1=O.[Na+] (stereo not shown) [Sodium salt of 7-oxo-16,17,18,19,20-pentanor-15-cyclopentyl-PGI2] | 0.625 | – | 0.0075 | 83.1 | – | 21.2 | about hundred times more selective than prostacycline; also recorded: considerably more selective than the sodium salt of 7-oxo-PGI2
